This passage reports EC50 results from PubChem BioAssay AID652002 (Sanford-Burnham Center for Chemical Genomics, 2013).

The structures appear in SMILES notation. pEC50: −log10 of the molar value. Calls of active or inactive are those of the source. No rule for the calls is given here.

In test [1] the target is Tumor necrosis factor receptor superfamily member 10B (Homo sapiens) (UniProt O14763). Put plainly: compound enhancement of TRAIL-induced cell killing – NB7 cells plus caspase-8, luminescence, panel, dose response (AID 652002). Particulars: NB7 neuroblastoma +caspase-8, TRAIL sensitization, luminescence viability; NB7+Caspase-8; with TRAIL, mean of runs.
Sequence of Tumor necrosis factor receptor superfamily member 10B (Homo sapiens) (O14763 whole entry, looked up): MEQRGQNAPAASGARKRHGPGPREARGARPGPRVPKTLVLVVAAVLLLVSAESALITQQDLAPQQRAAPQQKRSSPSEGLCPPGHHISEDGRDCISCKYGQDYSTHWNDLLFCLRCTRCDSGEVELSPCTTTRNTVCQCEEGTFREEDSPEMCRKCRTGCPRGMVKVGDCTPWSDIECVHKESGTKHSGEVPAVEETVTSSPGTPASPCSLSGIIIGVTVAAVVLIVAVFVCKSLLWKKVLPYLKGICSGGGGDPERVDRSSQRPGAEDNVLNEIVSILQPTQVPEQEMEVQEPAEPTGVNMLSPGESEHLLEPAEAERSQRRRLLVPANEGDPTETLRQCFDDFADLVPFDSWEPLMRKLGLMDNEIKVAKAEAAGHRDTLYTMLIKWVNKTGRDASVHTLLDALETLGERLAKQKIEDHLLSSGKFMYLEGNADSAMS
The target in test [2] is NB7+Caspase-8. The description is as above. Conditions: NB7 neuroblastoma +caspase-8, TRAIL sensitization, luminescence viability, with TRAIL.
Assay in test [3]: as above
Particulars: NB7 neuroblastoma +caspase-8, no TRAIL, compound-alone cytotoxicity counter-screen, luminescence viability, NB7+Caspase-8; for EC50: mean of runs; for pEC50: single replicate panel EC50. Background: A counterscreen serves to expose hits that act by an unwanted route or on another target.

[4] abbreviates: run 1, single replicate panel EC50.
[5] abbreviates: run 2, single replicate panel EC50.

Take `Cc1ccc(NC(=O)c2cc3ccccc3o2)nc1`: the EC50 entry in test [1] and in test [3] was “inactive” in each case. The pEC50 (commonly the EC50 on a negative log10 scale, so that one unit is a factor of ten) in test [2] (setting [4]) was below 4.90; in test [2] (setting [5]), 5.05; in test [3] (run 1), 5.13; in test [3] (run 2), 4.96.

Take `CCCCC1CCC(C(=O)N(CCC(C)C)c2c(N)n(CCCC)c(=O)[nH]c2=O)CC1` (centres undefined): the EC50 in test [1] and in test [3] was > 12.5 µM (inactive) throughout. The pEC50 in test [2] (setting [4]), in test [2] (setting [5]), in test [3] (run 1) and in test [3] (run 2) was below 4.90 throughout.

For `O=C(Nc1ccc2c(c1)OCCO2)NC1CCCCC1`, in test [1], the EC50 – broadly, the midpoint of the concentration-response curve – is “inactive”. Also, the pEC50 is below 4.90 in test [2] (setting [4]), 4.92 in test [2] (setting [5]), below 4.90 in test [3] (run 1) and below 4.90 in test [3] (run 2). Further, the EC50 in test [3] is > 12.5 µM (inactive).

In the case of `COc1ccc(NS(=O)(=O)c2cccc(C(=O)N/N=C/c3c(F)c(F)c(F)c(F)c3F)c2)cc1`, in test [1], the EC50 was > 12.5 µM (inactive). Further, the pEC50 in test [2] (setting [4]) was below 4.90; in test [2] (setting [5]), below 4.90; in test [3] (run 1), below 4.90; in test [3] (run 2) it was 4.94. Further, the EC50 entry in test [3] is “inactive”.

Turning to `O=C(Nc1ccc2c(c1)OCO2)c1ccc2c(c1)OCO2`, the EC50 entry in test [1] and in test [3] was “inactive” in each case. The pEC50 in test [2] (setting [4]) is below 4.90; in test [2] (setting [5]), 5.29; in test [3] (run 1), 5.16; in test [3] (run 2), 4.95.

Take `Cc1cc(NC(=O)c2cncc(Br)c2)ccc1NC(=O)c1cc2ccccc2o1`: the EC50 result in test [1] was “inactive”. Besides, the pEC50 is below 4.90 in test [2] (setting [4]), 5.01 in test [2] (setting [5]), below 4.90 in test [3] (run 1) and below 4.90 in test [3] (run 2). Further, the EC50 in test [3] was > 12.5 µM (inactive).

Turning to `Cc1ccc(NC(=O)c2ccccc2O)cc1`, the EC50 result in test [1] and in test [3] was “inactive” in each case. Besides, the pEC50 in test [2] (setting [4]) was below 4.90; in test [2] (setting [5]) it was 4.98; in test [3] (run 1) it was 4.95; in test [3] (run 2), 5.11.

For `COC(=O)c1ccc(/C=C/c2nc3ccccc3c(=O)[nH]2)cc1`, the EC50 in test [1] and in test [3] was > 12.5 µM (inactive) each time. Further, the pEC50 in test [2] (setting [4]), in test [2] (setting [5]), in test [3] (run 1) and in test [3] (run 2) was below 4.90 in each case.

As to `O=C(Nc1cnc2ccccn2c1=O)c1ccc(Cl)cc1Cl`, the EC50 in test [1] and in test [3] was > 12.5 µM (inactive) throughout. Further, the pEC50 in test [2] (setting [4]), in test [2] (setting [5]), in test [3] (run 1) and in test [3] (run 2) was below 4.90 each time.

For `CC(C)(C)OC(=O)[C@H](Cc1ccccc1)NC(=O)c1[nH]cnc1C(=O)Nc1ccccc1F`, the EC50 in test [1] and in test [3] was > 12.5 µM (inactive) each time. For the same compound, the pEC50 in test [2] (setting [4]), in test [2] (setting [5]), in test [3] (run 1) and in test [3] (run 2) was below 4.90 in each case.

On to `CCN(CC)S(=O)(=O)c1ccc(C(=O)OCC(=O)Nc2ccc(-c3nc4ccc(C)cc4s3)cc2)cc1`, for which the EC50 in test [1] and in test [3] was > 12.5 µM (inactive) each time. Moreover, the pEC50 in test [2] (setting [4]), in test [2] (setting [5]), in test [3] (run 1) and in test [3] (run 2) was below 4.90 in each case.

As for `CC(C)CCn1c(=O)c(C(=O)Nc2ccccc2S(N)(=O)=O)c(O)c2ccccc21`, the EC50 in test [1] and in test [3] was > 12.5 µM (inactive) in each case. Also, the pEC50 in test [2] (setting [4]), in test [2] (setting [5]), in test [3] (run 1) and in test [3] (run 2) was below 4.90 throughout.

For `COCCCn1c(C(=O)Nc2ccc3c(c2)OCO3)cc2c(=O)n3cccc(C)c3nc21`, the EC50 in test [1] and in test [3] was > 12.5 µM (inactive) each time. The pEC50 in test [2] (setting [4]), in test [2] (setting [5]), in test [3] (run 1) and in test [3] (run 2) was below 4.90 throughout.

Turning to `C#Cc1ccc(NC(=O)C2(C)CCN2C(=O)Cc2ccc(C(C)C)cc2)cc1` (centres undefined), the EC50 in test [1] was > 12.5 µM (inactive). The negative-log EC50 (pEC50) in test [2] (setting [4]) was below 4.90; in test [2] (setting [5]), below 4.90; in test [3] (run 1) it was below 4.90; in test [3] (run 2), 5.08. In addition, in test [3], the EC50 entry was “inactive”.
